In patent US6737383B1, “Herbicidal oxadiazolidines” (priority 1999, dated 2004):

Columns and labels:
bedstraw = assay: Test B pre/postemergence bedstraw; type: in vivo, Galium aparine
Outline: (§1)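 Response is a visual 0-to-10 score relative to untreated plants, where 0 means no effect and 10 means complete control, taken twelve to sixteen days after application. Treatments went onto soil at planting and onto foliage of 1- to 4-leaf plants, using a surfactant-containing non-phytotoxic solvent.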

blackgrass = assay: Test B pre/postemergence blackgrass; type: in vivo, Alopecurus myosuroides
Outline: as §1

surinam grass = assay: Test B pre/postemergence surinam grass; type: in vivo, Brachiaria decumbens; conditions: Postemergence
Outline: as §1

cocklebur = assay: Test B pre/postemergence cocklebur; type: in vivo, Xanthium strumarium
Outline: as §1

corn = assay: Test B pre/postemergence corn; type: in vivo, Zea mays
Outline: as §1

crabgrass = assay: Test B pre/postemergence crabgrass; type: in vivo, Digitaria sanguinalis
Outline: as §1

giant foxtail = assay: Test B pre/postemergence giant foxtail; type: in vivo, Setaria faberii
Outline: as §1

morningglory = assay: Test B pre/postemergence morningglory; type: in vivo, Ipomoea hederacea
Outline: as §1

pigweed = assay: Test B pre/postemergence pigweed; type: in vivo, Amaranthus retroflexus
Outline: as §1

rape = assay: Test B pre/postemergence rape; type: in vivo, Brassica napus
Outline: as §1

soybean = assay: Test B pre/postemergence soybean; type: in vivo, Glycine max
Outline: as §1

sugar beet = assay: Test B pre/postemergence sugar beet; type: in vivo, Beta vulgaris
Outline: as §1

velvetleaf = assay: Test B pre/postemergence velvetleaf; type: in vivo, Abutilon theophrasti
Outline: as §1

wheat = assay: Test B pre/postemergence wheat; type: in vivo, Triticum aestivum
Outline: as §1

wild oat = assay: Test B pre/postemergence wild oat; type: in vivo, Avena fatua
Outline: as §1

purple nutsedge = assay: Test B pre/postemergence purple nutsedge; type: in vivo, Cyperus rotundus
Outline: as §1

[1] = Postemergence, Rate 62 g/ha, scale 0 to 10, 0 is no effect, 10 is complete control
[2] = Postemergence, Rate 125 g/ha, scale of 0 to 10 where 0 is no effect and 10 is complete control
[3] = Preemergence, Rate 125 g/ha, scale of 0 to 10 where 0 is no effect and 10 is complete control
[4] = Preemergence, Rate 250 g/ha, scale 0 (no effect) to 10 (complete control)
[5] = Rate 62 g/ha, Preemergence, scale 0 to 10
[6] = Rate 250 g/ha, Postemergence, scale 0 to 10, 0 is no effect, 10 is complete control
[7] = Rate 500 g/ha, Postemergence, scale 0 to 10, 0 is no effect, 10 is complete control
[8] = Rate 500 g/ha, Preemergence, scale 0 to 10 (0 no effect, 10 complete control)

CC(C)N(C(=O)n1oc(=O)n(C(C)C(=S)N(C)C)c1=O)c1ccc(F)cc1F (stereo not shown) [Compound 739]
2: Blackgrass plant response rating (blackgrass; [5]) | B. signalgrass plant response rating (surinam grass; Rate 125 g/ha, scale of 0 to 10 where 0 is no effect and 10 is complete control) | B. signalgrass plant response rating (surinam grass; Rate 250 g/ha, scale 0 to 10, 0 is no effect, 10 is complete control) | Plant response rating, Cocklebur (cocklebur; [1]) | Cocklebur plant response rating (cocklebur; [2]) | Cocklebur plant response rating (cocklebur; [6]) | Corn plant response rating (corn; [4]) | Corn plant response rating (corn; [8]) | Plant response rating, Crabgrass (crabgrass; [3]) | Crabgrass plant response rating (crabgrass; [5]) | Plant response rating, Redroot pigweed (pigweed; [3]) | Redroot pigweed plant response rating (pigweed; [5]) | Rape plant response rating (rape; [7]) | Rape plant response rating (rape; [8]) | Plant response rating, Sugarbeets (sugar beet; [3]) | Sugarbeets plant response rating (sugar beet; [4]) | Sugarbeets plant response rating (sugar beet; [5]) | Velvetleaf plant response rating (velvetleaf; [4]) | Wheat plant response rating (wheat; [6])
7: B. signalgrass plant response rating (surinam grass; Rate 500 g/ha, scale 0 to 10, 0 is no effect, 10 is complete control) | Plant response rating, Giant foxtail (giant foxtail; [1])
4: Bedstraw plant response rating (bedstraw; [6]) | Plant response rating, Crabgrass (crabgrass; [1]) | Soybean plant response rating (soybean; [6]) | Sugarbeets plant response rating (sugar beet; [7]) | Sugarbeets plant response rating (sugar beet; [8]) | Wild oats plant response rating (wild oat; [8])
3: Plant response rating, Bedstraw (bedstraw; [1]) | Bedstraw plant response rating (bedstraw; [2]) | Blackgrass plant response rating (blackgrass; [2]) | Plant response rating, Blackgrass (blackgrass; [3]) | Blackgrass plant response rating (blackgrass; [4]) | Blackgrass plant response rating (blackgrass; [6]) | Cocklebur plant response rating (cocklebur; [7]) | Redroot pigweed plant response rating (pigweed; [2]) | Redroot pigweed plant response rating (pigweed; [6]) | Plant response rating, Soybean (soybean; [1]) | Soybean plant response rating (soybean; [2]) | Plant response rating, Sugarbeets (sugar beet; [1]) | Sugarbeets plant response rating (sugar beet; [2]) | Sugarbeets plant response rating (sugar beet; [6]) | Velvetleaf plant response rating (velvetleaf; [7]) | Velvetleaf plant response rating (velvetleaf; [8]) | Wheat plant response rating (wheat; [8]) | Nutsedge plant response rating (purple nutsedge; [7])
10: Plant response rating, Bedstraw (bedstraw; [3]) | Bedstraw plant response rating (bedstraw; [4]) | Bedstraw plant response rating (bedstraw; [8]) | Blackgrass plant response rating (blackgrass; [8]) | Crabgrass plant response rating (crabgrass; [8]) | Giant foxtail plant response rating (giant foxtail; [8]) | Redroot pigweed plant response rating (pigweed; [8])
5: Redroot pigweed plant response rating (pigweed; [7]) | Soybean plant response rating (soybean; [7])
6: Bedstraw plant response rating (bedstraw; [7]) | Blackgrass plant response rating (blackgrass; [7]) | Plant response rating, Morningglory (morningglory; [1]) | Morningglory plant response rating (morningglory; [6]) | Wheat plant response rating (wheat; [7])
0: Bedstraw plant response rating (bedstraw; [5]) | Plant response rating, Blackgrass (blackgrass; [1]) | Plant response rating, B. signalgrass (surinam grass; Rate 62 g/ha, scale 0 to 10, 0 is no effect, 10 is complete control) | Plant response rating, Cocklebur (cocklebur; [3]) | Cocklebur plant response rating (cocklebur; [4]) | Cocklebur plant response rating (cocklebur; [5]) | Cocklebur plant response rating (cocklebur; [8]) | Plant response rating, Corn (corn; [1]) | Corn plant response rating (corn; [2]) | Plant response rating, Corn (corn; [3]) | Corn plant response rating (corn; [5]) | Corn plant response rating (corn; [6]) | Corn plant response rating (corn; [7]) | Plant response rating, Morningglory (morningglory; [3]) | Morningglory plant response rating (morningglory; [4]) | Morningglory plant response rating (morningglory; [5]) | Morningglory plant response rating (morningglory; [8]) | Plant response rating, Redroot pigweed (pigweed; [1]) | Plant response rating, Rape (rape; [1]) | Rape plant response rating (rape; [2]) | Plant response rating, Rape (rape; [3]) | Rape plant response rating (rape; [4]) | Rape plant response rating (rape; [5]) | Rape plant response rating (rape; [6]) | Plant response rating, Soybean (soybean; [3]) | Soybean plant response rating (soybean; [4]) | Soybean plant response rating (soybean; [5]) | Soybean plant response rating (soybean; [8]) | Plant response rating, Velvetleaf (velvetleaf; [1]) | Velvetleaf plant response rating (velvetleaf; [2]) | Plant response rating, Velvetleaf (velvetleaf; [3]) | Velvetleaf plant response rating (velvetleaf; [5]) | Velvetleaf plant response rating (velvetleaf; [6]) | Plant response rating, Wheat (wheat; [1]) | Wheat plant response rating (wheat; [2]) | Plant response rating, Wheat (wheat; [3]) | Wheat plant response rating (wheat; [4]) | Wheat plant response rating (wheat; [5]) | Plant response rating, Wild oats (wild oat; [1]) | Wild oats plant response rating (wild oat; [2]) | Plant response rating, Wild oats (wild oat; [3]) | Wild oats plant response rating (wild oat; [4]) | Wild oats plant response rating (wild oat; [5]) | Wild oats plant response rating (wild oat; [6]) | Wild oats plant response rating (wild oat; [7]) | Plant response rating, Nutsedge (purple nutsedge; [1]) | Plant response rating, Nutsedge (purple nutsedge; [3]) | Nutsedge plant response rating (purple nutsedge; [4]) | Nutsedge plant response rating (purple nutsedge; [5]) | Nutsedge plant response rating (purple nutsedge; [6]) | Nutsedge plant response rating (purple nutsedge; [8])
9: Crabgrass plant response rating (crabgrass; [2]) | Crabgrass plant response rating (crabgrass; [4]) | Crabgrass plant response rating (crabgrass; [7]) | Giant foxtail plant response rating (giant foxtail; [2]) | Plant response rating, Giant foxtail (giant foxtail; [3]) | Giant foxtail plant response rating (giant foxtail; [4]) | Giant foxtail plant response rating (giant foxtail; [5]) | Giant foxtail plant response rating (giant foxtail; [6]) | Giant foxtail plant response rating (giant foxtail; [7]) | Redroot pigweed plant response rating (pigweed; [4])
8: Morningglory plant response rating (morningglory; [7])
